{"source": "patent US9309256B2", "about": "“Pharmaceutically active dimers linked through phenolic hydroxyl groups” (OrphoMed LLC, priority 2014, dated 2016)", "key": {"[1]": {"conditions": "room temperature, tap water, 1N HCl or 5% aqueous sodium bicarbonate"}, "mice": {"tested_on": "mice", "conditions": "mildly stressed mice"}, "human liver microsomes [2]": {"tested_on": "human liver microsomes", "conditions": "approximately 1 μM, human liver microsomes 1 mg protein/ml, up to 1 hour"}, "IBS-D patients": {"tested_on": "IBS-D patients", "conditions": "cited from earlier work"}, "male CD-1 mice [3]": {"tested_on": "male CD-1 mice", "assay": "Stress-induced fecal output", "assay_type": "in vivo", "from_the_text": "The animals used in the studies were male CD-1 mice, average weight about 30 to 35 g, with an average of 5 mice per dose group. The mice were generally housed in colony housing where they are housed 3 per cage in polycarbonate cages with access to food and water ad lib.\nOn the day of the experiment the mice were transported to the procedure room where they were individually housed in 20 cm wide×20 cm deep×15 cm tall cages, equipped with a wire mesh bottom after intragastric administration of test compounds. During the test the animals were allowed access to water only ad lib. The wire mesh bottomed tall cage creates a novel environment which induces stress in mice. The number of pellets excreted was determined on an hourly basis."}, "[4]": {"target": "T1, human δ subtype 2 opioid receptor (Homo sapiens, UniProt P41143)", "T1 construct": "purchased Perkin Elmer RBHODM400UA; host or cells: Chinese Hamster Ovary cells (membranes)", "T1 sequence (P41143 whole entry)": "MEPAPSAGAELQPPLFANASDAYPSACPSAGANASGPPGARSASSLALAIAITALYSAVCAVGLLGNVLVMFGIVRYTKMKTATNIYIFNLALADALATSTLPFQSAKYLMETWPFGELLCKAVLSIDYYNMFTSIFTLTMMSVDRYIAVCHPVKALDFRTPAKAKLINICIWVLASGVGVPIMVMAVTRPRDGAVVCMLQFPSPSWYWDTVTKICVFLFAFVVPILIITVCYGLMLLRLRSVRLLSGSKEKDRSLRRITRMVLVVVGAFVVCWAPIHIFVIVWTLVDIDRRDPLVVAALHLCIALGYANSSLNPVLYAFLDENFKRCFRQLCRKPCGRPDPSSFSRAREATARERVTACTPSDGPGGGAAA", "assay": "Human δ opioid receptor binding assay (tritiated naltrindole displacement)", "description": "The assay was designed to test the ability of a compound to interfere with the binding of tritiated naltrindole to the human δ subtype 2 opioid receptor. Membranes from Chinese Hamster Ovary cells expressing the human δ subtype 2 opioid receptor (Perkin Elmer #RBHODM400UA) were homogenized in assay buffer (50 mM Tris, pH 7.5 with 5 mM MgCl2) using a glass tissue grinder, Teflon pestle and Steadfast Stirrer (Fisher Scientific). The concentration of membranes was adjusted to 100 μg/mL in the assay plate, a 96 well round bottom polypropylene plate. Compounds to be tested were solubilized in DMSO, 10 mM, then diluted in assay buffer to 6× the desired final concentration. The ligand, ^3H-natrindole (Perkin Elmer #NET-1065) was also diluted in assay buffer to 6 nM. Aliquots of ^3H-natrindole (50 μL) were transferred to the assay plate containing the membranes in duplicate. The assay plate was incubated for 30 minutes at room temperature. A GF/C 96 well filter plate (Perkin Elmer #6005174) was pretreated with 0.3% polyethylenimine for 30 min. The contents of the assay plate were filtered through the filter plate using a Packard Filtermate Harvester, and washed 3 times with 0.9% saline at 4° C. The filter plate was dried, the underside sealed, and a 30 μL MictoS=scint 20 (Packard #6013621) was added to each well. A Topcount-NXT Microplate Scintillation Counter (Packard) was used to measure emitted energies in the range of 2.9 to 35 KeV. Results are compared to maximum binding, wells receiving no inhibitors. Nonspecific binding was determined in the presence of 1 μM unlabelled Natrindole. […] Relative to the μ and κ opioid receptors, the dimer has poor affinity for the δ receptor."}, "[5]": {"assay": "Stress stability assay of the buprenorphine dimer (tap water, acid, base, heat)", "assay_type": "physicochemical", "conditions": "1N HCl, 5% aqueous sodium bicarbonate, room temperature and 140° F., up to 30 minutes"}, "[6]": {"assay": "In vivo pharmacokinetic study, oral and IV", "conditions": "CD-1 mice, 10 mg/kg IV and oral gavage", "description": "Animals used in these animal pharmacokinetic studies were CD-1 mice (about 35 gms, n=3 per time point). Drugs tested were buprenorphine and the buprenorphine dimer. Dose 10 mg/kg IV and oral gavage. Blood was collected at time 0, 30 min and 1, 2, 6 and 24 hours. Blood samples for the drug were analyzed after harvesting the plasma and by LC/MS/MS as follows:\nStandard curve was prepared in mouse plasma spiked with either the test drugs (10-25000 nM). Plasma samples (50 μL) were extracted in 300 μL acetonitrile containing losartan or buprenorphine-d4 as internal standard. Extracts were centrifuged at 16000×g at 4° C. for 5 minutes. Supernatants (250 μL) were transferred to a new tube and dried under N2 at 45° C. for 1 hour. Samples were reconstituted with 100 μL of 30% acetonitrile, vortexed and centrifuged. Supernatants (90 μL) were transferred to LC vials and 10 μL is injected on LC/MS."}, "μ opioid receptor [7]": {"target": "T2, μ opioid receptor (Homo sapiens, UniProt P35372)", "assay": "Human μ opioid receptor binding assay (3H-Naloxone displacement)", "parameters": "purchased Perkin Elmer RBHOMM400UA; host or cells: Chinese Hamster Ovary cells (membranes)", "conditions": "FIG. 9"}, "human μ receptors [8]": {"target": "T3, human μ receptors (Homo sapiens, UniProt P35372)", "T3 construct": "purchased Receptor Biology Inc. (Baltimore Md.); host or cells: CHO-hMOR cell membranes", "T3 sequence (P35372 whole entry)": "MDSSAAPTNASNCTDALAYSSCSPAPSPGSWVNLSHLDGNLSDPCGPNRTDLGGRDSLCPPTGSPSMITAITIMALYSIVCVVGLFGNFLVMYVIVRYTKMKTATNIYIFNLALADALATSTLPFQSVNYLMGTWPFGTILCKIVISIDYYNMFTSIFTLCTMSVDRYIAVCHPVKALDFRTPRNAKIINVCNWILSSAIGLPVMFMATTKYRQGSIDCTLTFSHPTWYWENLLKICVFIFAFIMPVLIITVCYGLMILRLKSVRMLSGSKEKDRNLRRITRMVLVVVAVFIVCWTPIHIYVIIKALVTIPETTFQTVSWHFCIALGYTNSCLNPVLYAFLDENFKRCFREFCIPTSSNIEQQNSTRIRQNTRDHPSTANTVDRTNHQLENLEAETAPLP", "assay": "μ opioid receptor antagonist functional assay: [35S]GTPγS binding in CHO-hMOR cell membranes", "assay_type": "biochemical", "conditions": "inhibition of agonist-stimulated GTPγS binding, FIG. 12", "description": "(§1) This example illustrates the ability of the buprenorphine dimer provided herein to stimulate the p-opioid receptor-mediated signaling. Briefly, CHO-hMOR cell membranes were purchased from Receptor Biology Inc. (Baltimore Md.). About 10 mg/ml of membrane protein was suspended in 10 mM TRIS-HCl pH 7.2, 2 mM EDTA, 10% sucrose, and the suspension kept on ice. One mL of membranes was added to 15 mL cold binding assay buffer containing 50 mM HEPES, pH 7.6, 5 mM MgCl2, 100 mM NaCl, 1 mM DTT and 1 mM EDTA. The membrane suspension was homogenized with a polytron and centrifuged at 3000 rpm for 10 min. The supernatant was then centrifuged at 18,000 rpm for 20 min. The pellet was resuspended in 10 mL assay buffer with a polytron. […]\n(§2) The buprenorphine dimer was tested for function as an antagonist by evaluating its potential to inhibit agonist-stimulated GTPγS binding using D-Phe-Cys-Tyr-D-Trp-Orn-Thr-Pen-Thr-NH2 (CTOP) as the standard. Radioactivity was quantified on a Packard Top Count. The following parameters are calculated: % Stimulation=[(test compound cpm−non-specific cpm)/(basal cpm−non-specific cpm)]*100 % Inhibition=(% stimulation by 1 μM SNC80−% stimulation by 1 μM SNC80 in presence of test compound)*100/(% stimulation by 1 μM SNC80−100).\n(§3) EC50 was calculated using GraphPad Prism."}, "human μ receptors [9]": {"target": "T3, human μ receptors", "assay": "μ opioid receptor agonist functional assay: [35S]GTPγS binding in CHO-hMOR cell membranes", "assay_type": "biochemical", "conditions": "FIG. 11", "description": "as §1, §2, §3"}, "human liver microsomes [10]": {"tested_on": "human liver microsomes", "assay": "Metabolic stability of buprenorphine dimer in human liver microsomes", "conditions": "1 μM, human liver microsomes 1 mg protein/mL, 37 °C, with or without NADPH co-factor, up to 2 hours"}, "male CD-1 mice [11]": {"tested_on": "male CD-1 mice", "assay": "Effect on post-inflammatory altered GI transit time (mustard oil)", "assay_type": "in vivo", "conditions": "25 mg per kg oral, mustard oil treated mice", "description": "This test was designed to measure the effect of test substance on gastrointestinal hypersensitivity following inflammation. Post-inflammatory altered GI transit was induced in male CD-1 mice by injecting freshly opened oil of mustard (95% pure allyl isothiocyanate, 0.5% in ethanol). The effect of stress on the post-inflammatory GI tract was tested 3-4 weeks after dosing. […] The effect of the test substance was measured after oral administration (intragastric gavage) and subjecting animals to environmental stress by housing them in cages (20 cm wide×20 cm deep×15 cm tall), equipped with a wire mesh bottom. During the test the animals were allowed access to water ad lib. The wire mesh bottomed tall cage creates a novel environment which induces stress in mice. The number of pellets excreted is determined on hourly to two-hourly basis."}, "μ opioid receptor [12]": {"target": "T2, μ opioid receptor", "conditions": "briefing documents to FDA advisory committee; cited from earlier work"}}, "data": [{"compound": "C=CCN1CC[C@]23c4c5ccc(OCCOc6ccc7c8c6O[C@H]6C(=O)CC[C@@]9(O)[C@@H](C7)N(CC=C)CC[C@]869)c4O[C@H]2C(=O)CC[C@@]3(O)[C@H]1C5", "note": "[naloxone dimer]", "values": [{"measurement": "stability / degradation to naloxone", "setting": "[1]", "result": "does not appreciably degrade to naloxone"}, {"measurement": "reversal of loperamide-induced constipation (fecal pellets excreted per hour)", "setting": "mice; comparable to control by hour 3 or later", "result": "reversed the constipating effects"}, {"measurement": "formation of naloxone over time", "setting": "human liver microsomes [2]", "result": "no evidence of formation naloxone over time"}]}, {"compound": "COc1ccc(CN(C(=O)[C@@H](N)Cc2c(C)cc(C(N)=O)cc2C)[C@@H](C)c2ncc(-c3ccccc3)[nH]2)cc1C(=O)O", "note": "[Eluxadoline]", "values": [{"measurement": "pancreatitis cases", "setting": "IBS-D patients; Phase II trials", "result": "several cases of pancreatitis"}, {"measurement": "Phase III efficacy endpoints", "setting": "IBS-D patients; Phase III testing, IBS-D", "result": "met primary endpoints of improvement in stool consistency and reduction of abdominal pain"}]}, {"compound": "CO[C@]12CC[C@@]3(C[C@@H]1[C@](C)(O)C(C)(C)C)[C@H]1Cc4ccc(OCCOc5ccc6c7c5O[C@H]5[C@@]8(OC)CC[C@@]9(C[C@@H]8[C@](C)(O)C(C)(C)C)[C@@H](C6)N(CC6CC6)CC[C@]759)c5c4[C@@]3(CCN1CC1CC1)[C@H]2O5", "note": "[buprenorphine dimer]", "values": [{"measurement": "dose dependence of fecal output", "setting": "male CD-1 mice [3]; FIG. 15", "result": "decreases with dose"}, {"measurement": "fecal output versus placebo (vehicle)", "setting": "male CD-1 mice [3]; oral, 25 and 50 mg per kg, stressed male CD-1 mice", "result": "significantly reduced the fecal output"}, {"measurement": "IC50", "setting": "[4]", "result": 7.6, "unit": "nM"}, {"measurement": "Ki", "setting": "[4]", "result": 2.87, "unit": "nM"}, {"measurement": "affinity for the δ receptor relative to the μ and κ opioid receptors", "setting": "[4]", "result": "poor affinity"}, {"measurement": "stability / degradation to buprenorphine", "setting": "[5]", "result": "remained stable and did not degrade to release buprenorphine"}, {"measurement": "absolute bioavailability (ratio of the area under the concentration curve after oral and IV dose)", "setting": "[6]", "result": "≤ 1", "unit": "%"}, {"measurement": "affinity for the opioid μ receptor", "setting": "μ opioid receptor [7]", "result": "significant affinity"}, {"measurement": "μ antagonist function", "setting": "human μ receptors [8]", "result": "does not function as a μ-antagonist"}, {"measurement": "μ agonist function", "setting": "human μ receptors [9]", "result": "potent μ agonist"}, {"measurement": "stability in presence of microsomal enzymes (% Parent Remaining)", "setting": "human liver microsomes [10]", "result": "relatively stable"}, {"measurement": "gastrointestinal motility as measured by fecal output", "setting": "male CD-1 mice [11]", "result": "significantly decreases gastrointestinal motility"}, {"measurement": "gastrointestinal motility as measured by fecal output at 2 hours", "setting": "male CD-1 mice [11]; 2 hours", "result": "continues to inhibit gastrointestinal motility with statistically significant results"}]}, {"compound": "C[N@+]1(CC2CC2)CC[C@]23c4c5ccc(O)c4O[C@H]2C(=O)CC[C@@]3(O)[C@H]1C5", "note": "[Methylnaltrexone Bromide]", "values": [{"measurement": "Ki", "setting": "μ opioid receptor [12]", "result": 42, "unit": "nM"}]}, {"compound": "CO[C@]12CC[C@@]3(C[C@@H]1[C@](C)(O)C(C)(C)C)[C@H]1Cc4ccc(O)c5c4[C@@]3(CCN1CC1CC1)[C@H]2O5", "note": "[buprenorphine, Buprenorphine, reference compound]", "values": [{"measurement": "absolute bioavailability (ratio of the area under the concentration curve after oral and IV dose)", "setting": "[6]", "result": "about 30%"}]}, {"compound": "CN(C)C(=O)C(CCN1CCC(O)(c2ccc(Cl)cc2)CC1)(c1ccccc1)c1ccccc1", "note": "[loperamide, reference compound]", "values": [{"measurement": "number of pellets expelled versus control (vehicle) animals", "setting": "mice", "result": "significantly less"}]}]}
